Measured values taken from doi:10.1101/2020.03.02.973636v3 (biorxiv, 2020).

Assays:
HDAC1 [1] = target: T1, HDAC1 (Homo sapiens, UniProt Q13547); experiment: biolayer interferometry, […] global fit; format: binding
HDAC1 [2] = target: T1, HDAC1; experiment: biochemical; settings: read-out: kdis (1/s)
HDAC8 [3] = target: T2, HDAC8 (Homo sapiens, UniProt Q9BY41); experiment: biolayer interferometry, […] global fit; format: binding
T2 sequence (Q9BY41 1-377): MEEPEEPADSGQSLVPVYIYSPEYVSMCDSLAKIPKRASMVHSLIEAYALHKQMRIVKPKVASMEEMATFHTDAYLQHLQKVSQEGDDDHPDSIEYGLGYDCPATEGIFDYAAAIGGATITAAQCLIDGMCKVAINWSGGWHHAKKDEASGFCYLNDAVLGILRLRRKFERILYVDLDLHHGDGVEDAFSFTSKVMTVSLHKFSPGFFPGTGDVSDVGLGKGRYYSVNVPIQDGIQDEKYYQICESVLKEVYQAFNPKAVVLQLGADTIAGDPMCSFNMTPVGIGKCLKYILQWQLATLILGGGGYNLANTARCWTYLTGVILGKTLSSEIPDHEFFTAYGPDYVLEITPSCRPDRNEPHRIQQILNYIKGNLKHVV

HDAC2 [4] = target: T3, HDAC2 (Homo sapiens, UniProt Q92769); experiment: biolayer interferometry, […] global fit; format: binding
HDAC8 [5] = target: T2, HDAC8; experiment: biochemical; settings: read-out: kdis (1/s)
HDAC2 [6] = target: T3, HDAC2; experiment: biochemical; settings: read-out: ka (1/Ms)
HDAC8 [7] = target: T2, HDAC8; experiment: RapidFire mass spectrometry deacetylase assay; format: biochemical
HDAC2 [8] = target: T3, HDAC2; experiment: biochemical; settings: read-out: kdis (1/s)
HDAC8 [9] = target: T2, HDAC8; experiment: biochemical; settings: read-out: ka (1/Ms)
HDAC1 [10] = target: T1, HDAC1; experiment: biochemical; settings: read-out: ka (1/Ms)
HDAC1 [11] = target: T1, HDAC1; experiment: biochemical

T3 sequence (Q92769 whole entry): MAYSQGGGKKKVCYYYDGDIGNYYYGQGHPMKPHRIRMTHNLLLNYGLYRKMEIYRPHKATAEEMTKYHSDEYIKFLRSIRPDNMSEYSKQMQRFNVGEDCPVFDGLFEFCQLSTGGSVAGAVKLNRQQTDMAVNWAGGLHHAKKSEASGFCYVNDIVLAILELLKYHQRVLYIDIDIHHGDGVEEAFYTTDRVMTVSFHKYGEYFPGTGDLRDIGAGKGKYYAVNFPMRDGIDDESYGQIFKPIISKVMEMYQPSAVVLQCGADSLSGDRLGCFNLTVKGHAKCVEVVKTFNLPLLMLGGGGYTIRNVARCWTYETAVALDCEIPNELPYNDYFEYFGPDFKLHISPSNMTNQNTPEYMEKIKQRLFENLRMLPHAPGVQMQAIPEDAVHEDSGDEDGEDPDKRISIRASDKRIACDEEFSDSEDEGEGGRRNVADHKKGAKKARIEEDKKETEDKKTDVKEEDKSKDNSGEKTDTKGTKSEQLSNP
T1 sequence (Q13547 whole entry): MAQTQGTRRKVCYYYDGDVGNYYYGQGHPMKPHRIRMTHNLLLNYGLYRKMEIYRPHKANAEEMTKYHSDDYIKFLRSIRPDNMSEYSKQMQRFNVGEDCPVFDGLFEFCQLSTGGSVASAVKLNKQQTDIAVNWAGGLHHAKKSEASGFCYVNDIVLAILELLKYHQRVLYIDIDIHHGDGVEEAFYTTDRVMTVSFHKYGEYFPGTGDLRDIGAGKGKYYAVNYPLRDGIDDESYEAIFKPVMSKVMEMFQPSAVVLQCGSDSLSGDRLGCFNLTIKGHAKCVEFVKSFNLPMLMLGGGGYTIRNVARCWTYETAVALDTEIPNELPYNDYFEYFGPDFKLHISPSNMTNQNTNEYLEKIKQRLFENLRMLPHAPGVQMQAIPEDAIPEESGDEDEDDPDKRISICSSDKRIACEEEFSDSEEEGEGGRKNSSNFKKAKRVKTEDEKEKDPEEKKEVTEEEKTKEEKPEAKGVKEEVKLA

- Kd (HDAC1 [1]): 94.9 ± 0.8 nM
- koff (HDAC1 [2]): 0.00134 s⁻¹
- Kd (HDAC8 [3]): 257.9 ± 1.7 nM
- Kd (HDAC2 [4]): 142.8 ± 1 nM
- koff (HDAC8 [5]): 0.0013 s⁻¹
- kon (HDAC2 [6]): 8740 M⁻¹ s⁻¹
- EC50 (HDAC8 [7]): 270 nM
- koff (HDAC2 [8]): 0.00125 s⁻¹
- kon (HDAC8 [9]): 5050 M⁻¹ s⁻¹
- kon (HDAC1 [10]): 15500 M⁻¹ s⁻¹
- EC50 (HDAC1 [11]): 160 nM
Structure (SMILES): O=C(c1cc(O)c(O)c(O)c1)c1ccc(O)c(O)c1O [Exifone, 2,3,3’,4,4’,5’-hexahydroxybenzophenone]
